Data: patent US4102887A, “Intermediates used in the preparation of phenyl-pyridylamine derivatives” (priority 1974, dated 1978)
Where a name gives a salt, the structure may show the parent alone. Read-outs that look alike come from different tables or passages of the source.

Tests used:
[1] = literature / prior patents; cited from earlier work
[2] = system: neuronal uptake of noradrenaline; assay: Inhibition of uptake of 3H-NA in vitro in slices of mouse midbrain; type: cell-based; conditions: in words; in vitro or in vivo not stated
Method: (§1) It is not possible by experimental means to induce depressions in laboratory animals. In order to evaluate a possible anti-depressive effect of new substances biochemicalpharmacological test methods must be resorted to. One such method, which seems to give a good indication of the potential anti-depressive effects of the test substances, is described in Europ.
(§2) The test substances were administered intraperitoneally half an hour before the animals were killed. […] The incubation time was 5 minutes with 5 minutes of preincubation before the labelled amines were added. The slices were dissolved in Soluene® and the amounts of radio-active amines taken up were determined by liquid scintillation. […] Active uptake is defined as that part of the radioactive uptake which is inhibited by a high concentration of cocaine.
(§3) In the in vitro method, slices of mouse midbrain were preincubated for 5 minutes with a solution of the compound to be tested and then incubated as described above.

[3] = system: neuronal uptake of noradrenaline; assay: Inhibition of uptake of 3H-NA in brain slices after in vivo (i.p.) administration; set-up: species or system mouse
Method: as §1, §2

[4] = system: neuronal uptake of 5-hydroxytryptamine; assay: Inhibition of uptake of 14C-5-HT in vitro in slices of mouse midbrain; type: cell-based
Method: as §1, §2, §3

[5] = system: neuronal uptake of 5-hydroxytryptamine; assay: Inhibition of uptake of 14C-5-HT in brain slices after in vivo (i.p.) administration; set-up: species or system mouse; conditions: in words
Method: as §1, §2

[6] = cited from earlier work

For `CN(C)CC=C(c1ccccc1)c1ccccc1`, the antidepressive effect [1] is listed as “have an antidepressive effect”.

For `CNC/C=C(\c1ccc(Br)cc1)c1cccnc1` [E-form of the compound of the invention, (E)-3-(4-bromophenyl)-3-(3-pyridyl)-N-methyl-allylamine], the “preferential inhibition of noradrenaline uptake” value [2] was “primarily inhibits the uptake of noradrenaline”.

In the case of `CNC/C=C(/c1ccc(Br)cc1)c1cccnc1` [H Z hydrochloride, (Z)-3-(4-bromophenyl)-3-(3-pyridyl)-N-methyl-allylamine], the inhibition at 101 µmol/kg ([3]; Mus musculus, ip, at the dose 101 μmole/kg i.p.) is reported as 39% and the “Uptake of 3H-NA in vivo ED50” value ([3]; i.p., half an hour before killing, mouse midbrain slices, dose for 50 percent decrease of active uptake, 30 min) is reported as greater than 101 µmol/kg.

`CNC/C=C(/c1ccc(Br)cc1)c1cccnc1` [H Z oxalate, (Z)-3-(4-bromophenyl)-3-(3-pyridyl)-N-methyl-allylamine] gave an ED50 ([3]; Mus musculus, ip, 0.5 h, i.p., half an hour before killing, mouse midbrain slices, dose for 50 percent decrease of active uptake) of 102 µmol/kg.

With `CNCC=C(c1ccc(Br)cc1)c1cccnc1` [H mixture oxalate, N-methyl-3-(4-bromophenyl)-3-(3-pyridyl)allylamine oxalate] the EC50 ([4]; Mus musculus, mouse midbrain slices, 5 min preincubation, 5 min incubation) was 500 nM.

With `CNC/C=C(/c1ccc(Br)cc1)c1cccnc1` [Z-form of the compound of the invention, (Z)-3-(4-bromophenyl)-3-(3-pyridyl)-N-methyl-allylamine] the “inhibition of the uptake of 5-HT in vivo, compared with prior art compounds” value [5] was “stronger inhibition of the uptake of 5-HT in vivo than do any of the prior art compounds tested” and the “inhibition of the uptake of 5-HT in vitro, compared with prior art compounds” value ([4]; in words, tested as the hydrochloride) was “more potent inhibitor of the uptake of 5-HT in vitro than any of the prior art compounds”.

In the case of `CN(C)CCC=C1c2ccccc2CCc2ccccc21` [amitriptyline], the side effects ([6]; in vivo) is listed as “orthostatism, anticholinergic effects and above all, an arrhythmogenic i.e. heart arrhythmia developing effect” and the “start of the antidepressive effect” value ([6]; therapeutic use) is listed as “does not start until some weeks after treatment”.

In the case of `CNCCCN1c2ccccc2CCc2ccccc21` [desipramine], the side effects ([6]; in vivo) is given as “orthostatism, anticholinergic effects and above all, an arrhythmogenic i.e. heart arrhythmia developing effect” and the “start of the antidepressive effect” value ([6]; therapeutic use) is given as “does not start until some weeks after treatment”.

In the case of `CN(C)CCCN1c2ccccc2CCc2ccccc21` [imipramine], the side effects ([6]; in vivo) is given as “orthostatism, anticholinergic effects and above all, an arrhythmogenic i.e. heart arrhythmia developing effect” and the “start of the antidepressive effect” value ([6]; therapeutic use) is given as “does not start until some weeks after treatment”.

In the case of `CNCCC=C1c2ccccc2CCc2ccccc21` [nortriptyline], the side effects ([6]; therapeutic use, arrhythmogenic in large doses to old patients) is given as “orthostatism, anticholinergic effects and above all, an arrhythmogenic i.e. heart arrhythmia developing effect” and the “start of the antidepressive effect” value ([6]; therapeutic use) is given as “does not start until some weeks after treatment”.
